From patent US8765422B2, “D4 desaturases and D5 elongases” (priority 2007, dated 2014)
Several values for one entry are separate records, joined by “and”; a condition that tells them apart may be missing. Equal entries are not always repeated.

Key:
[1] = system: Δ5-elongase from Thraustochytrium ONC-T18; assay: Δ5-elongase (clone pYElo) expressed in Saccharomyces cerevisiae INVSc1, fed free fatty acid substrate, percent conversion by FAME GC; type: cell-based, Thraustochytrium sp. ONC-T18; settings: pYElo in yeast
Experimental: The activity and specificity of the D4-desaturase and D5 elongase were determined using the yeast expression system. The transformed yeast was grown in SC-U medium containing 2% glucose, 1% Tergitol NP-40 for 48 hrs, 150 RPM at 30° C. A substrate medium was prepared containing SC-U, 2% galactose, 1% raffinose, 1% Tergitol NP-40 and 500 μM specific free fatty acid. The transformed yeast culture was inoculated into 100 ml substrate medium at an OD600 of 0.5 and cultures incubated at 20° C. for 5 days. The biomass was recovered by centrifugation at 2000 RPM for 5 min, washed once with 100 mM phosphate buffer (pH 7.0), then freeze dried. Fatty acid methyl ester gas chromatography was subsequently carried out to determine the efficiency of fatty acid desaturation and elongation. The percent conversion of the substrate was determined by calculating (product)/(substrate+product)*100. […]
The negative control strain was INVSc1 containing the unaltered pYES2 vector, and these were grown simultaneously. […] The FAMEs were resuspended in iso-octane and analysed by GC-FID. The percent conversion was calculated by dividing the product produced by the sum of (the product produced+the substrate added) and then multiplying by 100. […]

[2] = system: Δ4-desaturase from Thraustochytrium ONC-T18; assay: Δ4-desaturase (clone pYDes) expressed in Saccharomyces cerevisiae INVSc1, fed free fatty acid substrate, percent conversion by FAME GC; type: cell-based, Thraustochytrium sp. ONC-T18; settings: for % conversion average, vector pYDes: pYDes in INVSc1, 500 μM substrate, GC-FID of FAMEs; for % conversion average, vector pYDes / % conversion With 0.01% ferric citrate: 96 hours at 20° C.; for increase With 0.01% ferric citrate: conversion with 0.01% ferric citrate versus without; for % conversion average (substrate to product) / % conversion With 0.01% ferric citrate: pYDes in yeast; for % conversion average (substrate to product): 500 μM free fatty acid substrate, 20° C., (product)/(substrate+product)*100; for % conversion With 0.01% ferric citrate: 500 μM substrate
Experimental: The activity and specificity of the D4-desaturase and D5 elongase were determined using the yeast expression system. The transformed yeast was grown in SC-U medium containing 2% glucose, 1% Tergitol NP-40 for 48 hrs, 150 RPM at 30° C. A substrate medium was prepared containing SC-U, 2% galactose, 1% raffinose, 1% Tergitol NP-40 and 500 μM specific free fatty acid. The transformed yeast culture was inoculated into 100 ml substrate medium at an OD600 of 0.5 and cultures incubated at 20° C. for 5 days. The biomass was recovered by centrifugation at 2000 RPM for 5 min, washed once with 100 mM phosphate buffer (pH 7.0), then freeze dried. Fatty acid methyl ester gas chromatography was subsequently carried out to determine the efficiency of fatty acid desaturation and elongation. The percent conversion of the substrate was determined by calculating (product)/(substrate+product)*100.
Clone pYDes, which consisted of the full length Δ4-desaturase cloned into pYES2 (Invitrogen, Carlsbad, Calif.), and clone pYElo, which consisted of the full-length Δ5-elongase gene in pYES2, were transformed into competent Saccharomyces cerevisiae INVSc1. Yeast transformation was carried out using the S. c. EasyComp Transformation kit (Invitrogen, Carlsbad, Calif.) according to conditions specified by the manufacturer. Transformants were selected for uracil auxotrophy on media lacking uracil (SC-Ura). To detect the specific desaturase activity of these clones, transformants were grown in the presence of 500 μM specific fatty acid substrates as listed below: A) Docosapentaenoic acid (22:5n-3) (conversion to docosahexaenoic acid would indicate Δ4-desaturase activity), B) Docosatetraenoic acid (22:4n-6) (conversion to docosapentaenoic acid (22:5n-6) would indicate Δ4-desaturase activity), C) Dihomo-gamma-linolenic acid (20:3n-6) (conversion to arachidonic acid (20:4n-6) would indicate Δ5-desaturase activity), D) Eicosapentaenoic acid (20:5n-3) (conversion to docosapentaenoic acid (22:5n-3) would indicate Δ5-elongase activity), E) Arachidonic acid (20:4n-6) (conversion to docosatetraenoic acid (22:4n-6) would indicate Δ5-elongase activity)
The negative control strain was INVSc1 containing the unaltered pYES2 vector, and these were grown simultaneously. The cultures were vigorously agitated (150 rpm) and grown for 96 hours at 20° C. in the presence of 500 μM (final concentration) of the various substrates. The cells were pelleted and washed in 100 mM phosphate buffer, pH 7.0, cell pellets were freeze dried. The lipids were then extracted and derivitized to fatty acid methyl esters (FAME) for gas chromatography analysis (GC). Transesterification and extraction was done using 100 mg freeze dried cells, with C19:0 as internal standard, added transesterification reaction mix (methanol: hydrochloric acid: chloroform, 10:1:1) mixed and heated at 90° C. for 2 hours, then allowed to cool at room temperature. FAMEs were extracted by adding 1 ml water, and 2 ml hexane: chloroform (4:1), and allow organic and aqueous phases to separate. The organic layer was extracted and treated with 0.5 g of anhydrous sodium sulfate to remove particulates and residual water. The organic solvents were evaporated under a stream of argon. The FAMEs were resuspended in iso-octane and analysed by GC-FID. The percent conversion was calculated by dividing the product produced by the sum of (the product produced+the substrate added) and then multiplying by 100.
Clone pYDes, which consisted of the full length Δ4-desaturase cloned into pYES2 (Invitrogen, Carlsbad, Calif.), was transformed into competent Saccharomyces cerevisiae INVSc1. The negative control strain was INVSc1 containing the unaltered pYES2 vector, and these were grown simultaneously.

SMILES | conversion of substrate by pYElo [1] | % conversion average, vector pYDes [2] [%] | increase With 0.01% ferric citrate [2] [fold] | % conversion average (substrate to product) [2] | % conversion With 0.01% ferric citrate [2] [%] | other results
CCCCC/C=C\C/C=C\C/C=C\C/C=C\CCCC(=O)O [ARA, Arachidonic acid (20:4n-6)] | minimal conversion |  |  |  |  | 
CCCCC/C=C\C/C=C\C/C=C\CCCCCCC(=O)O [DGLA, Dihomo-gamma-linolenic acid (20:3n-6)] |  | 0.87 |  |  |  | 
CC/C=C\C/C=C\C/C=C\C/C=C\C/C=C\CCCCCC(=O)O [DPA, Docosapentaenoic acid (22:5n-3)] |  | 14 | 2.75 | 14.04% | 38.70 | % conversion average, vector pYDes ([2]; listed as C22:5 n-3): 14.04%; % conversion average (substrate to product) ([2]; listed as DPA n-3): 14%; DPA to DHA conversion on addition of ferric citrate to the media ([2]; pYDes, trace metal ferric citrate added): increase
CCCCC/C=C\C/C=C\C/C=C\C/C=C\CCCCCC(=O)O [DTA, Docosatetraenoic acid (22:4n-6)] |  | 14 | 2.43 | 14% and 13.76% | 33.43 | % conversion average, vector pYDes ([2]; listed as C22:4 n-6): 13.76%
CC/C=C\C/C=C\C/C=C\C/C=C\C/C=C\CCCC(=O)O [EPA, Eicosapentaenoic acid (20:5n-3)] | minimal conversion |  |  |  |  | 
